Laboratory results taken from PMC6934184, “Selective DNA-PKcs inhibition extends the therapeutic index of localized radiotherapy and chemotherapy” (The Journal of Clinical Investigation, 2019).

Target: T1, CDC42 BPA (MRCKA) (Homo sapiens, UniProt Q5VT25)
T1 construct: purchased Thermo Fisher Scientific (Life Technologies) SelectScreen
Test: SelectScreen Z'LYTE
Type: biochemical
Summary of the method: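 NU5455 was profiled across the SelectScreen Broad panel of kinase activity and binding assays. Z'LYTE reactions such as CSF1R ran at apparent Km ATP, while the Adapta CAMK1 assay used ATP listed as 10. Values are given as percent.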

T1 sequence (Q5VT25 whole entry): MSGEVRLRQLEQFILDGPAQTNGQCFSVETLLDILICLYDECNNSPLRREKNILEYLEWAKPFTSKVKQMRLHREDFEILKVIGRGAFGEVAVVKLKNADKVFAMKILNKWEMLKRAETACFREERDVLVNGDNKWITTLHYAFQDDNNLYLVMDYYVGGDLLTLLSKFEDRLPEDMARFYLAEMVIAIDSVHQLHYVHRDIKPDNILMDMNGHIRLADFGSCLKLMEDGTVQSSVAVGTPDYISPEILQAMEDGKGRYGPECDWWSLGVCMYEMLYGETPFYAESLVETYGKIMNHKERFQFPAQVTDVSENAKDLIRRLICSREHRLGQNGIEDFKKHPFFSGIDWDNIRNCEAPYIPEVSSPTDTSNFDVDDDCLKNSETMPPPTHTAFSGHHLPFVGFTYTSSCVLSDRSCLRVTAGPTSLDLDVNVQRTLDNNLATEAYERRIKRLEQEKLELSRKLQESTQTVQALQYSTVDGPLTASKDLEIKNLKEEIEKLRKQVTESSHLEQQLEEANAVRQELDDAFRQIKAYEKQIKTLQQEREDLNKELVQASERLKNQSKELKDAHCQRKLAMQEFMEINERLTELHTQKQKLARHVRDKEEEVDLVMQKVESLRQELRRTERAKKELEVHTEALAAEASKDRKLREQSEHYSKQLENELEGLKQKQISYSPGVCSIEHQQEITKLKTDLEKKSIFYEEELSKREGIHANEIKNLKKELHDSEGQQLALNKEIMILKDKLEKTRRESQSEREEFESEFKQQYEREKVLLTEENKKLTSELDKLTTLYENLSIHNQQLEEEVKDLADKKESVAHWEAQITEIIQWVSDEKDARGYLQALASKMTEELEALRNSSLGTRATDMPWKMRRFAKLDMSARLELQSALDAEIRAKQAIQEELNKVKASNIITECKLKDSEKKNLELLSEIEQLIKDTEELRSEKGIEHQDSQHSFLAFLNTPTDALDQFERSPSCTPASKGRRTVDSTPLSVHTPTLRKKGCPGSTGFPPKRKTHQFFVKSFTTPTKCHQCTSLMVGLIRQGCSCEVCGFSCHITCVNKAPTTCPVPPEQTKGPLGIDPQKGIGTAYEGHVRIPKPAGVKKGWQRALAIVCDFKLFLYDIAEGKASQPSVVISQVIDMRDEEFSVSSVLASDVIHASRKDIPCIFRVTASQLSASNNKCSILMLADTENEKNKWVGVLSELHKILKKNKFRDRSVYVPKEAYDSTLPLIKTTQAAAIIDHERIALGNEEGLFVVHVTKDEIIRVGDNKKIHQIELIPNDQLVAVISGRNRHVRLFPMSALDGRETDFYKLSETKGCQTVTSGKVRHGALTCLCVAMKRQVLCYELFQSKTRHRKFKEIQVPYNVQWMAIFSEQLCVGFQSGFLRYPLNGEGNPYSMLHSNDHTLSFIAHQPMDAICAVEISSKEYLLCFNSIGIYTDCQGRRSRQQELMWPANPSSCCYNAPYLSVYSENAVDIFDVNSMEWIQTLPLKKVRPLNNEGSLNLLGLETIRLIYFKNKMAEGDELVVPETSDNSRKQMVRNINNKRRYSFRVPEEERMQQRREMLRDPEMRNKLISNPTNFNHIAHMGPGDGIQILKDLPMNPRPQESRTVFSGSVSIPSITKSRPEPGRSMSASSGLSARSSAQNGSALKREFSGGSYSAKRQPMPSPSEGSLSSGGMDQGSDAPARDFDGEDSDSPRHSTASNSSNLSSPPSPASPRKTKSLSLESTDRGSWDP

CN(C(=O)CN1CCOCC1)c1ccc2sc3c(-c4cccc5c(=O)cc(N6CC7CCC(C6)O7)oc45)cccc3c2c1 [NU5455]
inhibition at 1 µM: 5%
